Values of other authors as cited in patent US12557843B2, “Other than cannabinoids, flavonoids, and terpenes” (priority 2020, dated 2026).

Columns and labels:
[1] = system: monoamine oxidase enzyme (MAO)
CB2 cannabinoid receptor = CB2 cannabinoid receptor (Homo sapiens, UniProt P34972)
acetylcholinesterase = acetylcholinesterase (Homo sapiens, UniProt P22303)
acetylcholinesterase, sequence (P22303 32-614, species assumed): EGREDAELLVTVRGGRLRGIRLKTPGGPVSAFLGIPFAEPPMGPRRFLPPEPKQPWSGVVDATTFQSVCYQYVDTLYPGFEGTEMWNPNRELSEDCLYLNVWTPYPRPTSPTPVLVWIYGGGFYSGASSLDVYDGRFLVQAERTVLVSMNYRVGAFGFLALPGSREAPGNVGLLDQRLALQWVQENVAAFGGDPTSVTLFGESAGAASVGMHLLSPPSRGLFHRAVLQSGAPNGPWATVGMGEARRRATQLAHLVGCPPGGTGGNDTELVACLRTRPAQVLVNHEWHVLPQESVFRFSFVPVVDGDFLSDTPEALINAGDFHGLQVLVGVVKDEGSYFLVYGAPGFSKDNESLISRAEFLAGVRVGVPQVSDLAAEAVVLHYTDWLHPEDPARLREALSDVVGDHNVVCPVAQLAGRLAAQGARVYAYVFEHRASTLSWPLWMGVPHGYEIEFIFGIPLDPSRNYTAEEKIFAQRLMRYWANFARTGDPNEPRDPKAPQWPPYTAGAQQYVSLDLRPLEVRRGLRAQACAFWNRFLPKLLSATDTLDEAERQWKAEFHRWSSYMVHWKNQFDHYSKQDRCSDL

CB2 cannabinoid receptor, sequence (P34972 whole entry): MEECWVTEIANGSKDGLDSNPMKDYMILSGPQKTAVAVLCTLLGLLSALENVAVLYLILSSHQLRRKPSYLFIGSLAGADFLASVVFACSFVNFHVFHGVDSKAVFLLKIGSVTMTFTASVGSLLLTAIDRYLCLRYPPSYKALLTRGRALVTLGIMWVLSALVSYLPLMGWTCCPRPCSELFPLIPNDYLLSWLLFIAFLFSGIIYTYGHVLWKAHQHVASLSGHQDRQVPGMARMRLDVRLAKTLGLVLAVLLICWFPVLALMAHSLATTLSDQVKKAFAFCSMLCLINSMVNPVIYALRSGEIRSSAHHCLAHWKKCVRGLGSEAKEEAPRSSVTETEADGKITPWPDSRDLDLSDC

Compound: C=C(C)[C@H]1CC=C(C)CC1 [Limonene]
- apoptosis (cell death) (breast cancer cells): produces apoptosis
- effects suggested by studies on laboratory animals (laboratory animals; limonene, rise of serotonin and dopamine in the brain): anxiolytic effects

Compound: CC12CCC(CC1)C(C)(C)O2 [Eucalyptol, 1,8-cineol]
- in vitro anti-leukaemia activity (leukaemia): in vitro anti-leukaemia properties

Compound: O=c1c(O)c(-c2ccc(O)c(O)c2)oc2cc(O)cc(O)c12 [quercitin, quercetin]
- effect on monoamine oxidase enzyme (MAO) [1]: inhibits

Compound: C=CC(=C)CCC=C(C)C [Myrcene]
- properties shown in studies on laboratory animals (laboratory animals; myrcene, laboratory animals): sedative, hypnotic, analgesic and muscle relaxant properties

Compound: C=CC(C)(O)CCC=C(C)C (stereo not drawn) [Linalool]
- effects in laboratory animals (laboratory animals; linalool, mediated by adenosine A2A and glutamate receptors): analgesic effects

Compound: O=c1cc(-c2ccc(O)cc2)oc2cc(O)cc(O)c12 [apigenin]
- action on the GABA receptors (GABA receptors): anxiolytic and sedative

Compound: C=C1CC/C=C(\C)CC[C@@H]2[C@@H]1CC2(C)C [B-caryophyllene, β-caryophyllene]
- CB2 cannabinoid receptor activity (CB2 cannabinoid receptor): CB2 cannabinoid receptor agonist
- effects proven in animal models (laboratory animals; β-caryophyllene, animal models, not yet in humans): anti-inflammatory and analgesic effects

Compound: CC1=CCC2CC1C2(C)C (stereo not drawn) [A-pinene, α-pinene]
- acetylcholinesterase inhibition (acetylcholinesterase): acetylcholinesterase inhibitor

Compound: COc1cc(-c2cc(=O)c3c(O)c(C/C=C(\C)CCC=C(C)C)c(O)cc3o2)ccc1O [cannaflavin-A]
- effect on PGE-2 (PGE-2): inhibits
- anti-inflammatory power compared with aspirin (PGE-2; relative to aspirin): exponentially more powerful than aspirin
